Assay results published in ChEMBL document CHEMBL1134134, “Novel tricyclic benzothiazolo[2,3-c]thiadiazine antagonists of the platelet ADP receptor (P2Y(12))” (Bioorg Med Chem Lett, 2001).

Tests used:
[1] = target: T1, P2Y purinoceptor 12 (Homo sapiens, UniProt Q9H244); assay: Ability to displace [3H]2-MeS-ADP from human Purinergic receptor P2Y12; type: tissue-based
[2] = organism: Homo sapiens; assay: Ability to inhibit platelet aggregation; type: functional, organism-based
[3] = target: T1, P2Y purinoceptor 12; assay: Compound was evaluated for its ability to inhibit human Purinergic receptor P2Y12 expressed in Xenopus oocyte

T1 sequence (Q9H244 whole entry): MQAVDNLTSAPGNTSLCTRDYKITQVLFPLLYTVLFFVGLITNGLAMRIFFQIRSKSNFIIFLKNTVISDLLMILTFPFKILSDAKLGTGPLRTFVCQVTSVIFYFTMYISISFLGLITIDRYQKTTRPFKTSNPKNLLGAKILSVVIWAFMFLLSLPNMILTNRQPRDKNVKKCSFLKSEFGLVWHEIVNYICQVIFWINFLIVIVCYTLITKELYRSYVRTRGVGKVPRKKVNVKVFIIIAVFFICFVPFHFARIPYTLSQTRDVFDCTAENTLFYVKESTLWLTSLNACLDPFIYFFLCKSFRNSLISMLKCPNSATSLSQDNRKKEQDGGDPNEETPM

Row | Structure (SMILES) | IC50 [1] | IC50 [2] | IC50 [3]
1 | O=C1/C(=C(\O)CS(=O)(=O)Nc2nc3ccc(-c4ccccc4)cc3s2)S(=O)(=O)N=C2Sc3cc(-c4ccccc4)ccc3N12 | > 50 µM | > 24 µM | –
2 | CCOC(=O)c1ccc2c(c1)SC1=NS(=O)(=O)C(C(=O)CS(=O)(=O)Nc3nc4ccc(C(=O)OCC)cc4s3)=C(O)N12 | 1.8 µM | 0.8 µM | –
3 | O=C1/C(=C(\O)CS(=O)(=O)Nc2nc3ccccc3s2)S(=O)(=O)N=C2Sc3ccccc3N12 | 21 µM | 26 µM | –
4 | O=C1/C(=C(\O)CS(=O)(=O)Nc2nc3ccc(F)cc3s2)S(=O)(=O)N=C2Sc3cc(F)ccc3N12 | 37 µM | > 120 µM | –
5 | O=C1/C(=C(\O)CS(=O)(=O)Nc2nc3ccc([N+](=O)[O-])cc3s2)S(=O)(=O)N=C2Sc3cc([N+](=O)[O-])ccc3N12 | 35 µM | 50 µM | –
6 | COc1cccc2c1N1C(O)=CS(=O)(=O)N=C1S2 | 77 µM | > 120 µM | –
7 | CS(=O)(=O)c1ccc2c(c1)SC1=NS(=O)(=O)C(C(=O)CS(=O)(=O)Nc3nc4ccc(S(C)(=O)=O)cc4s3)=C(O)N12 | 1.1 µM | 2.9 µM | –
8 | O=C1/C(=C(\O)CS(=O)(=O)Nc2nc3ccc(Oc4ccccc4)cc3s2)S(=O)(=O)N=C2Sc3cc(Oc4ccccc4)ccc3N12 | > 50 µM | > 24 µM | –
9 | CCOc1ccc2c(c1)SC1=NS(=O)(=O)C(C(=O)CS(=O)(=O)Nc3nc4ccc(OCC)cc4s3)=C(O)N12 | – | 0.18 µM | 40 nM
10 | COc1ccc2c(c1)SC1=NS(=O)(=O)C(C(=O)CS(=O)(=O)Nc3nc4ccc(OC)cc4s3)=C(O)N12 | – | 1.5 µM | –
11 | O=C1/C(=C(\O)CS(=O)(=O)Nc2nc3ccc(Cl)cc3s2)S(=O)(=O)N=C2Sc3cc(Cl)ccc3N12 | 35 µM | 64 µM | –
12 | O=C1/C(=C(\O)CS(=O)(=O)Nc2nc3ccc(C4CCCCC4)cc3s2)S(=O)(=O)N=C2Sc3cc(C4CCCCC4)ccc3N12 | > 120 µM | > 120 µM | –
13 | O=S1(=O)C=C(O)N2C(=N1)Sc1cc(OC(F)(F)F)ccc12 | > 120 µM | > 50 µM | –
14 | Cc1ccc2c(c1)SC1=NS(=O)(=O)C(C(=O)CS(=O)(=O)Nc3nc4ccc(C)cc4s3)=C(O)N12 | – | 9.5 µM | –
